The molecules below were run against Ba/F3-TEL-FGFR2 (Homo sapiens, UniProt P21802+P41212) (assay: Cell viability (proliferation inhibition) of Ba/F3 cells, CellTiter Glo). Conditions: read-out: Ba/F3 cell FGFR2 (IC50 nM), 72 h.
Chain of Ba/F3-TEL-FGFR2 (P21802 481-770 limits assumed, one chain of several): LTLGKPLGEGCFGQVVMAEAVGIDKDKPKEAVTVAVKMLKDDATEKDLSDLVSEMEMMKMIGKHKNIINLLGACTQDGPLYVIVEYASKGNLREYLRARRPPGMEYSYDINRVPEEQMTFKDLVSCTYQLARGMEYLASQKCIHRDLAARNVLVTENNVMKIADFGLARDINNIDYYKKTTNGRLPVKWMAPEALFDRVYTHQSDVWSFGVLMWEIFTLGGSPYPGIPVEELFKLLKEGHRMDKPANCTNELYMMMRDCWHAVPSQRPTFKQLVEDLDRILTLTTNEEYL
For C=C(C)C(=O)Nc1ccc(-c2c(-c3ccc(N=S4(=O)CCCCC4)c(Cl)c3)c3c(N)ncnc3n2C)cc1 [Compound 40, N-(4-(4-amino-5-(3-chloro-4-((1-oxotetrahydro-2H-1λ^6 - thiopyran-1-ylidene)amino)phenyl) -7-methyl-7H-pyrrolo [2,3-d]pyrimidin-6-yl)phenyl) methacrylamide], the IC50 was 7.7 nM.
Molecule C=C(C)C(=O)Nc1ccc(-c2c(-c3cc(F)c(N=S4(=O)CCCC4)c(F)c3)c3c(N)ncnc3n2C)cc1 [Compound 27, N-(4-(4-amino-5-(3,5-difluoro-4-((1-oxotetrahydro-1 λ^6-thiophene-1-ylidene)amino)phenyl) -7-methyl-7H-pyrrolo [2,3-d]pyrimidin-6-yl)phenyl) methacrylamide] has an IC50 of 26 nM.
Work on “N- (4- (4-amino-5- (4- (cyclopentyl (methyl) (oxo) - λ^6-sulfanylidene) amino) phenyl) -7-methyl-7H-pyrrole [2,3-d] pyrimidin-6-yl) -3-fluorophenyl) methacrylamide [Compound 49]” yielded an IC50 of 12.8 nM.
In the case of C=C(CN(C)C)C(=O)Nc1ccc(-c2c(-c3ccc(N=S4(=O)CCCC4)c(F)c3)c3c(N)ncnc3n2C)cc1 [Compound 92], the IC50 is reported as 0.8 nM.
Molecule C=C(C)C(=O)N(C)c1ccc(-c2c(-c3ccc(N=S4(=O)CCCCC4)c(F)c3)c3c(N)ncnc3n2C)cc1 [Compound 46, N-(4-(4-amino-5-(3-fluoro-4-((1-oxotetrahydro 2H-1λ^6 - thiopyran-1-ylidene)amino)phenyl) -7-methyl-7H-pyrrolo [2,3-d]pyrimidin-6-yl)phenyl) - N-methylmethacrylamide] has an IC50 of 162 nM.
In the case of [2H]C([2H])([2H])n1c(-c2ccc(NC(=O)C(=C)C)cc2F)c(-c2ccc(N=S3(=O)C=CC(C)(C)C3)cc2)c2c(N)ncnc21 (stereo not drawn) [Compound 108, N-(4-(4-amino-5-(4-((3,3-dimethyl-1-oxo-1 λ^6-thiophene-1-ylidene)amino)phenyl) -7-(methyl-d3) -7H-pyrrolo [2,3-d]pyrimidin-6-yl) -3-fluorophenyl) methacrylamide], the IC50 is reported as 2.5 nM.
CC#CC(=O)Nc1ccc(-c2c(-c3ccc(N=S4(=O)CCCC4)cc3)c3c(N)ncnc3n2C)cc1 [Compound 60, N-(4-(4-amino-7-methyl-5-(4-((1-oxotetrahydro-1 λ^6-thiophene-1-ylidene)amino)phenyl) -7H-pyrrolo [2,3-d]pyrimidin-6-yl)phenyl) but-2-ynamide] was tested, and the IC50 was 13.1 nM.
With C=C(C)C(=O)Nc1ccc(-c2c(-c3ccc(N=S4(=O)CCCCC4)cc3)c3c(N)ncc(C#N)c3n2C)c(F)c1 [Compound 64, N-(4-(4-amino-7-cyano-1-methyl-3-(4-((1-oxotetrahydro-2H-1λ^6-thiopyran-1-ylidene)amino)phenyl) -1H pyrrolo [3,2-c]pyridine-2-yl) -3-fluorophenyl) methacrylamide] the IC50 was 658 nM.
With C=C(C)C(=O)Nc1ccc(-c2c(-c3ccc(N=S(C)(C)=O)c(F)c3)c3c(N)ncnc3n2C)cc1 [Compound 44] the IC50 was 216 nM.
C=C(C)C(=O)N1CC=C(c2c(-c3ccc(N=S4(=O)CCCCC4)cc3)c3c(N)ncnc3n2C)CC1 [Compound 3, 1-(4-(4-amino-7-methyl-5-(4-(1-oxotetrahydro-2H-1λ^6-thiopyran-1-imino)phenyl)-7H-pyrrolo[2,3-d]pyrimidin-6-yl)-3,6-dihydropyridine-1(2H)-yl)2-methylprop-2-enyl-1-one] gave an IC50 of 700 nM.
C=C(C)C(=O)Nc1ccc(-c2c(-c3ccc(N=S4(=O)CC5(COC5)C4)c(F)c3)c3c(N)ncnc3n2C)cc1 [Compound 11] gave an IC50 of 172 nM.
C=C(C)C(=O)Nc1ccc(-c2c(-c3ccc(N=S(=O)(N4CCC4)C(F)(F)F)c(F)c3)c3c(N)ncnc3n2C)cc1 (stereo not drawn) [Compound 55, N-(4-(4-amino-5-(4-((azetidine 1-yl (oxo) (trifluoromethyl) -λ^6-sulfanylidene)amino)-3-fluorophenyl)-7-methyl-7H-pyrrolo[2,3-d]pyrimidin-6-yl)phenyl) methacrylamide] showed an IC50 of 3 nM.
C=C(C)C(=O)Nc1ccc(-c2c(-c3ccc(N=S4(=O)CCCCC4)cc3F)c3c(N)ncnc3n2C)cc1 [Compound 43, N-(4-(4-amino-5-(2-fluoro-4-((1-oxotetrahydro-2H-1λ^6-thiopyran-1-ylidene)amino)phenyl) -7-methyl-7H-pyrrolo [2,3-d]pyrimidin-6-yl)phenyl) methacrylamide] gave an IC50 of 14.2 nM.
Work on CN(C)C/C=C/C(=O)Nc1ccc(-c2c(-c3ccc(N=S4(=O)CCCCC4)c(F)c3)c3c(N)ncnc3n2C)cc1 [Compound 16, (E)-N-(4-(4-amino-5-(3-fluoro-4-((1-oxotetrahydro-2H-1 λ^6-thiopyran-1-ylidene)amino)phenyl) -7-methyl-7H-pyrrolo [2,3-d]pyrimidin-6-yl) - phenyl) -4-(dimethylamino) -2-butenamide] yielded an IC50 of 50.1 nM.
For C=C(C)C(=O)Nc1ccc(-c2c(-c3ccc(N=S(=O)(NCC)C(F)(F)F)c(F)c3)c3c(N)ncnc3n2C)cc1 (stereo not drawn) [Compound 71, N-(4-(4-amino-5-(4-(((ethylamino)(oxo)(trifluoromethyl)-1 λ^6-sulfaneylidene)amino)-3-fluorophenyl)-7-methyl-7H-pyrrolo[2,3-d]pyrimidin-6-yl)phenyl) methacrylamide], the IC50 was 2.5 nM.
In the case of C=C(C)C(=O)Nc1ccc(-c2c(-c3ccc(N=S(=O)(CC)CC)cc3)c3c(N)ncnc3n2CC(F)(F)F)c(F)c1 [Compound 103], the IC50 is reported as 13.9 nM.
In the case of C=C(C)C(=O)Nc1ccc(-c2c(-c3ccc(N=S4(=O)CCCC4)cc3)c3c(N)ncnc3n2CC(C)(C)O)c(F)c1 [Compound 79, N-(4-(4-amino-7-(2-hydroxy-2-methylpropyl)-5-(4-((1-hydroperoxid-1λ^6-thiophene-1-ylidene)amino)phenyl) -7H-pyrrolo [2,3-d]pyrimidin-6-yl) -3-fluorophenyl) methacrylamide], the IC50 is reported as 61.1 nM.
C=C(C)C(=O)Nc1ccc(-c2c(-c3ccc(N=S4(=O)CC(OC)(OC)C4)c(F)c3)c3c(N)ncnc3n2C)cc1 [Compound 10] showed an IC50 of 107 nM.
For CC#CC1=Nc2ccc(-c3c(-c4ccc(N=S(C)(C)=O)c(F)c4)c4c(N)ncnc4n3C)cc2C(C)(C)O1 [Compound 19], the IC50 was 2980 nM.
C=C(C)C(=O)Nc1ccc(-c2c(-c3ccc(N=S(=O)(N(C)CC)C(F)(F)F)c(F)c3)c3c(N)ncnc3n2C)cc1 (stereo not drawn) [Compound 53, N-(4-(4-amino-5-(4-(((ethyl(methyl)amino)(oxo)(trifluoromethyl)-λ^6-sulfanylidene)amino)-3-fluorophenyl)-7-methyl-7H-pyrrolo[2,3-d]pyrimidin-6-yl)phenyl) methacrylamide] gave an IC50 of 10.2 nM.
Molecule C=C(C)C(=O)Nc1ccc(-c2c(-c3ccc(N=S(=O)(N(C)C)C(F)(F)F)cc3F)c3c(N)ncnc3n2C)cc1 (stereo not drawn) [Compound 52, N-(4-(4-amino-5-(4-(((dimethylamino) (oxo) (trifluoromethyl) -λ^6-sulfanylidene)amino) -2-fluorophenyl) -7-methyl-7H-pyrrolo [2,3-d]pyrimidin-6-yl)phenyl) methacrylamide] has an IC50 of 2.3 nM.
Molecule C=C(C)C(=O)Nc1ccc(-c2c(C3=CCC(=S(=O)(CC)C(C)C)C=C3)c3c(N)ncnc3n2C)cc1 (stereo not drawn) [Compound 62, N-(4-(4-amino-5-(4-(ethyl(isopropyl)(oxo)-1λ^6-sulfanylidene)phenyl) -7-methyl-7H-pyrrolo[2,3-d]pyrimidin-6-yl)-phenyl)methacrylamide] has an IC50 of 9.2 nM.
In the case of C=C(C)C(=O)Nc1ccc(-c2c(-c3ccc(N=S(=O)(CC)CC)cc3)c3c(N)ncnc3n2C)c(C(F)F)c1 [Compound 73], the IC50 is reported as 11.1 nM.
In the case of C=C(C)C(=O)Nc1ccc(-c2c(-c3ccc(N=S(=O)(N4CCCC4)C(F)(F)F)c(F)c3)c3c(N)ncnc3n2C)cc1 (stereo not drawn) [Compound 47, N-(4-(4-amino-5-(3-fluoro-4-((oxo (pyrrolidine-1-yl) (trifluoromethyl) - λ^6-sulfanylidene)amino)phenyl) -7-methyl-7H-pyrrolo [2,3-d]pyrimidin-6-yl)phenyl) methacrylamide], the IC50 is reported as 2.7 nM.
Molecule C=C(C)C(=O)Nc1ccc(-c2c(-c3ccc(N=S4(=O)CCCCC4)c(F)c3)c3c(N)ncnc3n2C)cc1 [Compound 69, N-(4-(4-amino-5-(3-fluoro-4-((1-oxotetrahydro-2H-1λ^6-thiopyran-1-ylidene)amino)phenyl) -7-methyl-7H-pyrrolo [2,3-d]pyrimidin-6-yl)phenyl) methacrylamide] has an IC50 of 11.4 nM.
C=C(C)C(=O)Nc1ccc(-c2c(-c3ccc(N=S(C)(C)=O)c(F)c3)c3c(N)ncnc3n2C)c(F)c1 [Compound 42] gave an IC50 of 32.9 nM.
With [2H]c1c([2H])c(-c2c(-c3ccc(NC(=O)C(=C)C)cc3F)n(C)c3ncnc(N)c23)c([2H])c([2H])c1N=S1(=O)CCCC1 [Compound 114, N-(4-(4-amino-7-methyl-5-(4-((1-oxidetetrahydro-1 λ^6-thiophene-1-ylidene)amino)phenyl-2,3,5,6-d4) -7H-pyrrolo [2,3-d]pyrimidin-6-yl) -3-fluorophenyl) methacrylamide] the IC50 was 1.2 nM.
Work on C=C(C)C(=O)Nc1ccc(-c2c(-c3ccc(N=S4(=O)CCC(F)(F)CC4)cc3)c3c(N)ncnc3n2C)c(F)c1 [Compound 6, N-(4-(4-amino-5-(4-(4,4-difluoro-1-oxotetrahydro-2H-λ^6-thiopyran-1-imino)phenyl) -7-methyl-7H-pyrrolo [2,3-d]pyrimidin-6-yl) -3-fluorophenyl) methacrylamide] yielded an IC50 of 9.3 nM.
For C=C(C)C(=O)Nc1cc(-c2c(-c3ccc(N=S4(=O)CCCCC4)c(F)c3)c3c(N)ncnc3n2C)ccc1F [Compound 38, N-(5-(4-amino-5-(3-fluoro-4-((1-oxotetrahydro-2H-1 λ^6-thiopyran-1-ylidene)amino)phenyl) -7-methyl-7H-pyrrolo [2,3-d]pyrimidin-6-yl) -2-fluorophenyl) methacrylamide], the IC50 was 247 nM.
For C=C(F)C(=O)N1CC=C(c2c(-c3ccc(N=S4(=O)CCCCC4)cc3)c3c(N)ncnc3n2C)CC1 [Compound 65, 1-(4-(4-amino-7-methyl-5-(4-((1-oxotetrahydro-2H-1 λ^6-thiopyran-1-ylidene)amino)phenyl)-7H-pyrrolo[2,3-d]pyrimidin-6-yl)-3,6-dihydropyridine-1(2H)-yl) -2-fluoropropan-2-enyl-1-one], the IC50 was 121 nM.

From patent EP4553077A1 (Kinoteck Therapeutics Co., Ltd, priority 2022, dated 2024)
